Literature values, collected in US20230233510A1, “CYSTEINE PROTEASE INHIBITORS FOR USE IN THE PREVENTION AND/OR TREATMENT OF CORONAVIRUS” (ALBERT-LUDWIGS-UNIVERSITÄT FREIBURG, priority 2020, published 2023).

Assays:
SARS-CoV = settings: HeLa cells expressing ACE2 and TMPRSS2
[1] = tested on: human coronavirus NL63 (HCoV-NL63); settings: HeLa cells expressing ACE2 and TMPRSS2

For `CN(C)C(=O)COC(=O)Cc1ccc(OC(=O)c2ccc(NC(=N)N)cc2)cc1` [camostat, (4-{2-[2-(Dimethylamino)-2-oxoethoxy]-2-oxoethyl}phenyl)(4-carbamimidamidobenzoate)], the block of infection (SARS-CoV) is listed as “partially blocked infection” and the block of infection [1] is listed as “partially blocked infection”.
